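96-well plates; 48 h exposure; 5 concentrations. Endpoints by linear interpolation between flanking doses. Not reached: highest tested concentration assigned. The concentration for 50% growth inhibition is given as GI50. At the TGI there is no net growth.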
What was measured:
Test in all cases: NCI-60 cell line screen, 48 h
SF-268 CNS = tested on: SF-268 CNS
SF-295 CNS = tested on: SF-295 CNS
OVCAR-5 ovarian = tested on: OVCAR-5 ovarian
K-562 leukemia = tested on: K-562 leukemia
MDA-MB-231 breast = tested on: MDA-MB-231 breast
HCC-2998 colon = tested on: HCC-2998 colon
NCI/ADR-RES ovarian = tested on: NCI/ADR-RES ovarian
KM12 colon = tested on: KM12 colon
NCI-H23 lung = tested on: NCI-H23 lung

| SMILES | TGI (SF-268 CNS) [µM] | TGI (SF-295 CNS) [µM] | TGI (OVCAR-5 ovarian) [µM] | TGI (K-562 leukemia) [µM] | TGI (MDA-MB-231 breast) [µM] | TGI (HCC-2998 colon) [µM] | TGI (NCI/ADR-RES ovarian) [µM] | TGI (KM12 colon) [µM] | TGI (NCI-H23 lung) [µM] | GI50 (SF-268 CNS) [µM] | GI50 (OVCAR-5 ovarian) [µM] | GI50 (HCC-2998 colon) [µM] | GI50 (KM12 colon) [µM] | GI50 (NCI-H23 lung) [µM] |
| --- | --- | --- | --- | --- | --- | --- | --- | --- | --- | --- | --- | --- | --- | --- |
| O=[N+]([O-])c1ccc2c(c1)n1c(N3CCCC3)[n+]3ccccc3c1c1c3cccc[n+]3c(N3CCCC3)n21 | 42.6 | > 100 | > 100 | 88.2 | > 100 | > 100 | > 100 | > 100 | > 100 |  |  |  |  |  |
| CCOC(=O)CCC(NC(=O)OCc1ccccc1)C(=O)NC(CCC(=O)OCC)C(=O)NC(CCC(=O)OCC)C(=O)NNC(=O)OC(C)(C)C (stereo not drawn) |  |  | > 100 | > 100 | > 100 | > 100 |  |  | > 100 |  |  |  |  |  |
| CC(C#N)N(CCc1ccccc1)C(=O)c1ccccc1 (stereo not drawn) | > 100 | > 100 | > 100 | > 100 | > 100 | > 100 | > 100 | > 100 | > 100 |  |  |  |  |  |
| CC(C)(CN1CCCCC1)C(/C=C/c1ccccc1)=N\NC(=O)N/N=C(/C=C/c1ccccc1)C(C)(C)CN1CCCCC1 | 8.94 | 3.09 | 15.4 | 2.81 | 2.81 | 1.86 | 4.01 | 3.86 | 4.68 |  |  |  |  |  |
| COC(=O)/C=C1\C(=O)C=C2[C@@H]3C[C@H]4C[C@H](CC[C@@]4(C)N21)C3(C)NC(C)=O (stereo partly drawn) | 22.9 | 44.1 | 35.7 | > 100 | 56.2 | > 64.9 | > 77 | 33.2 | > 60.6 |  |  |  |  |  |
| CC1=NN2C(=N)/C(=C/c3ccccc3)C(=O)N=C2S1 | > 100 | > 100 | > 100 | > 100 | > 100 | > 100 | > 51 | > 100 | > 100 |  |  |  |  |  |
| O=NN1CCCS1(=O)=O | > 100 | > 100 | > 100 | > 100 | > 100 | > 100 | > 100 | > 100 | > 100 |  |  |  |  |  |
| COc1ccc(C2SCC(=O)N2NC(=O)C(C)Oc2ccc(Cl)cc2Cl)cc1 (stereo not drawn) | > 100 | > 100 | > 100 | 89.8 | 81 | > 100 | > 100 | > 100 | > 100 |  |  |  |  |  |
| Cc1c(C#N)c(=N)oc2ccccc12 | > 100 | > 100 | > 100 | > 100 | > 100 | > 100 | > 100 | > 100 | > 100 |  |  |  |  |  |
| COc1ccc(NC(=O)CC(=O)N2N=C(N(c3ccccc3)c3ccccc3)CC2c2ccccc2)cc1 (stereo not drawn) | > 100 | > 100 | > 100 | > 100 | > 100 | > 100 | > 100 | > 100 | > 100 |  |  |  |  |  |
| Clc1nc2c(C#Cc3ccccc3)ncnc2n1C1CCCCO1 (stereo not drawn) | 37.2 | 54.4 | 25.9 | > 100 | 48.4 | 28.7 | > 100 | 35.1 | 33.5 |  |  |  |  |  |
| O=c1nc2ccc3sc4ccccc4c(=O)c3n2c(=O)[nH]1 | > 100 | > 100 | > 100 | > 100 | > 100 | > 100 | > 100 | > 100 | > 100 |  |  |  |  |  |
| NC(=S)NNC(=S)NC(=O)c1ccco1 | > 10 |  | > 10 | > 10 | > 10 | > 10 | > 10 | > 10 | > 10 |  |  |  |  |  |
| CC1CN=C(c2ccc(CN3CCC(C4CCN(Cc5ccc(C6=NCC(C)N6)cc5)CC4)CC3)cc2)N1 (stereo not drawn) | 53.7 | 43.2 | 65.1 | 44.8 | 36.3 | 30.9 | > 100 | 31.8 | 84.7 |  |  |  |  |  |
| COc1cc2oc(=O)cc(C)c2cc1OC | > 100 | > 100 | > 100 | > 100 | > 100 |  | > 100 | > 100 | > 100 |  |  |  |  |  |
| C[C@]12CC[C@H]3[C@@H](CCC4=C(Br)C(=O)C=C[C@@]43O)[C@@H]1CCC2=O | > 100 | > 100 | > 100 | > 100 | > 100 |  | > 100 | > 100 | > 100 |  |  |  |  |  |
| COC(=O)[C@@]1(C)CCC[C@]2(C(=O)O)C3Cc4occc4[C@H](C)[C@@H]3CCC21 (stereo partly drawn) | > 100 | > 100 | > 100 | > 100 | > 100 | > 100 | 82 | > 100 | > 100 |  |  |  |  |  |
| Cc1nc(Nc2nc3ccccc3[nH]2)nc(Cl)c1CCCl | > 100 |  |  | > 100 | > 100 |  | > 100 | > 100 | > 100 |  |  |  |  |  |
| C/C(=N/NC(=S)N1CCN(C(=S)N/N=C(/C)c2ccccn2)CC1)c1ccccn1 | 57 | > 100 | > 100 | > 100 | > 100 | > 100 | > 45.8 | > 100 | > 81.9 |  |  |  |  |  |
| Cc1nc2cccc(F)c2c(=O)n1-c1nnc(C(F)(F)F)s1 | > 10 | > 10 | > 10 | > 10 | > 10 | > 10 | > 10 | > 10 | > 10 |  |  |  |  |  |
| N#C/C(=C1/c2cc([N+](=O)[O-])ccc2-c2c1cc([N+](=O)[O-])cc2[N+](=O)[O-])N1CCCCC1 | > 100 | > 100 | > 100 | > 100 | > 100 | > 100 | > 100 | > 100 | > 100 |  |  |  |  |  |
| C[PH+](c1nc2ccccc2nc1[PH+](C)C(C)(C)C)C(C)(C)C.C[PH+](c1nc2ccccc2nc1[PH+](C)C(C)(C)C)C(C)(C)C.[Au+].[Cl-] (stereo not drawn) | 1.35 |  | 0.457 |  |  | 0.302 |  | 0.131 | 0.104 | 0.0384 | 0.0441 | 0.0296 | 0.0314 | 0.0261 |
| COC(=O)c1cc(C)ccc1C1CN=NC12Cc1c(C)cc(C)cc1C2=O (stereo not drawn) | 98.9 | 97.4 | > 100 | > 100 | 65.7 | 78.2 | 46.8 | 39.1 | 50.4 |  |  |  |  |  |

Reference: PubChem BioAssay (NCI)
